Assay results: patent US11203591B2, “Substituted 6-azabenzimidazole compounds” (Gilead Sciences, Inc., priority 2018, dated 2021)

Molecular target: human HPK1 (MAP4K1) (Homo sapiens (Human), UniProt Q92918)
Assay: HPK1 IC50 Assay (TR-FRET peptide phosphorylation)
Assay type: biochemical
Method in brief: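 Readout: TR-FRET (665 nm/620 nm) after EDTA stop, detecting STK S1 peptide (1 μM) phosphorylation by 0.15 nM HPK1 kinase domain, ATP-pre-activated, at 10 μM ATP over 3 h, 25° C, pH 7.0. IC50s from four-parameter variable-slope fits, normalized to staurosporine and DMSO, averaged geometrically.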

[1] = recombinant HPK1 kinase domain 0.15 nM, 10 μM ATP, 1 μM STK S1 peptide, geometric mean of multiple experiments
[2] = 0.15 nM HPK1, 10 μM ATP, 1 μM STK S1 peptide substrate, geometric mean

human HPK1 (MAP4K1), sequence (Q92918 17-274): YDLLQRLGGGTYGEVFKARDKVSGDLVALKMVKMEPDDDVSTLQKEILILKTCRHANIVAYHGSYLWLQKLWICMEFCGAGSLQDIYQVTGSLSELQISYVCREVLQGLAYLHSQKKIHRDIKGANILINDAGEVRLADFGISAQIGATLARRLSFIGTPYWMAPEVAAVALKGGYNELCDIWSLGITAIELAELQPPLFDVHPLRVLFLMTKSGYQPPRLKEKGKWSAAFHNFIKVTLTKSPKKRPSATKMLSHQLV

IC50 [1] [nM]	IC50 [2] [nM]	Compound
0.09		Cc1c(C(=O)NC2(C(F)F)CC2)cc(Nc2nc(-c3cnc4c(c3)N([C@H]3C[C@@](C)(N5CCCOCC5)C3)C(=O)C4(C)C)cc3ncn(C(C)C)c23)c(F)c1F [Example 208, N-(1-(Difluoromethyl)cyclopropyl)-5-((6-(3,3-dimethyl-1-((1s,3s)-3-methyl-3-(1,4-oxazepan-4-yl)cyclobutyl)-2-oxo-2,3-dihydro-1H-pyrrolo[3,2-b]pyridin-6-yl)-3-isopropyl-3H-imidazo[4,5-c]pyridin-4-yl)amino)-3,4-difluoro-2-methylbenzamide]
0.1		CNC(=O)c1cc(Nc2nc(-c3ccc4c(c3)N([C@H]3C[C@@H](N[C@@H]5CCOC[C@H]5C)C3)C(=O)C4(C)C)cc3ncn(C(C)C)c23)ccc1C [Example 13]
0.05		Cc1ccc(Nc2nc(-c3ccc4c(c3)N([C@H]3C[C@@H](N5CCCCC5)C3)C(=O)C4(C)C)cc3ncn(C(C)C)c23)cc1C(=O)NCC(F)F [Example 20]
0.1		CNC(=O)c1cc(Nc2nc(-c3ccc4c(c3)N([C@H]3C[C@@H](N5CCCCC5)C3)C(=O)C43CCN(C(=O)C4COC4)CC3)cc3ncn(C4CC4)c23)ccc1C [Example 153]
0.3		CC[C@H](C)n1cnc2cc(-c3ccc4c(c3)N([C@H]3C[C@@H](N5CC[C@@H](F)C5)C3)C(=O)C4(C)C)nc(Nc3cc(C(=O)NC)c(C)cc3F)c21 [Example 109]
0.1		CNC(=O)c1cc(Nc2nc(-c3ccc4c(c3)N([C@H]3C[C@@H](N5CCCCC5)C3)C(=O)C4(C)C)cc3ncn(C(C)C)c23)c(F)cc1C [Example 175]
0.2		Cc1cc(F)c(Nc2nc(-c3cnc4c(c3)N([C@H]3C[C@@](C)(N5CCCCC5)C3)CC4(C)C)cc3ncn(C(C)C)c23)cc1C(=O)NC1(C(F)F)CC1 [Example 219, N-(1-(Difluoromethyl)cyclopropyl)-5-((6-(3,3-dimethyl-1-((1s,3s)-3-methyl-3-(piperidin-1-yl)cyclobutyl)-2,3-dihydro-1H-pyrrolo[3,2-b]pyridin-6-yl)-3-isopropyl-3H-imidazo[4,5-c]pyridin-4-yl)amino)-4-fluoro-2-methylbenzamide]
0.1		Cc1cc(F)c(Nc2nc(-c3ccc4c(c3)N([C@H]3C[C@@](C)(N5CCCCC5)C3)C(=O)C4(C)C)cc3ncn(C(C)C)c23)cc1C(=O)NC1(C(F)F)CC1 [Example 235, N-(1-(difluoromethyl)cyclopropyl)-5-((6-(3,3-dimethyl-1-((1s,3s)-3-methyl-3-(piperidin-1-yl)cyclobutyl)-2-oxoindolin-6-yl)-3-isopropyl-3H-imidazo[4,5-c]pyridin-4-yl)amino)-4-fluoro-2-methylbenzamide]
0.07		CNC(=O)c1cc(Nc2nc(-c3ccc4c(c3)N([C@H]3C[C@@H](N5CCCCC5)C3)C(=O)C4(C)C)cc3ncn(C(C)C)c23)ccc1Cl [Example 119]
0.1		Cc1c(C(=O)NC2(C(F)F)CC2)cc(Nc2nc(-c3cnc4c(c3)N([C@H]3C[C@@](C)(N5CC6CCC(C6)C5)C3)C(=O)C4(C)C)cc3ncn(C(C)C)c23)c(F)c1F [Example 230, 5-((6-(1-((1s,3s)-3-(3-Azabicyclo[3.2.1]octan-3-yl)-3-methylcyclobutyl)-3,3-dimethyl-2-oxo-2,3-dihydro-1H-pyrrolo[3,2-b]pyridin-6-yl)-3-isopropyl-3H-imidazo[4,5-c]pyridin-4-yl)amino)-N-(1-(difluoromethyl)cyclopropyl)-3,4-difluoro-2-methylbenzamide]
0.3		CNC(=O)c1cc(Nc2nc(-c3ccc4c(c3)N([C@H]3C[C@@H](NC5CC(F)(F)C5)C3)C(=O)C4(C)C)cc3ncn(C(C)C)c23)ccc1C [Example 81]
0.3		CC[C@]1(N2CCCCC2)C[C@@H](N2C(=O)C(C)(C)c3ncc(-c4cc5ncn(C(C)C)c5c(Nc5cc(C(=O)NC6(C(F)F)CC6)c(C)cc5F)n4)cc32)C1 [Example 213, N-(1-(Difluoromethyl)cyclopropyl)-5-((6-(1-((1r,3s)-3-ethyl-3-(piperidin-1-yl)cyclobutyl)-3,3-dimethyl-2-oxo-2,3-dihydro-1H-pyrrolo[3,2-b]pyridin-6-yl)-3-isopropyl-3H-imidazo[4,5-c]pyridin-4-yl)amino)-4-fluoro-2-methylbenzamide]
0.2		CNC(=O)c1cc(Nc2nc(-c3ccc4c(c3)N([C@H]3C[C@@H](N5CCCCC5)C3)C(=O)C43CCN(C(=O)[C@@H](C)O)CC3)cc3ncn(C(C)C)c23)ccc1C [Example 147]
0.2		CC(C)NC(=O)c1cc(Nc2nc(-c3ccc4c(c3)N([C@H]3C[C@@H](N5CCCCC5)C3)C(=O)C4(C)C)cc3ncn(C(C)C)c23)c(F)cc1Cl [Example 117]
0.2		COCCNC(=O)c1cc(Nc2nc(-c3ccc4c(c3)N([C@H]3C[C@@H](N5CCCCC5)C3)C(=O)C43CCN(C(C)=O)CC3)cc3ncn(C(C)C)c23)c(F)cc1C [Example 86]
	0.08	CCNC(=O)c1cc(Nc2nc(-c3ccc4c(c3)N([C@H]3C[C@@](C)(N5CCCCC5)C3)C(=O)C4(C)C)cc3ncn(C(C)C)c23)c(F)c(F)c1Cl [Example 288, 2-chloro-5-((6-(3,3-dimethyl-1-((1s,3s)-3-methyl-3-(piperidin-1-yl)cyclobutyl)-2-oxoindolin-6-yl)-3-isopropyl-3H-imidazo[4,5-c]pyridin-4-yl)amino)-N-ethyl-3,4-difluorobenzamide]
0.3		Cc1c(C(=O)NC2(C(F)F)CC2)cc(Nc2nc(-c3ccc4c(c3)N([C@H]3C[C@@](C)(N5CCCCC5)C3)CC4(C)C)cc3ncn(C(C)C)c23)c(F)c1F [Example 237, N-(1-(Difluoromethyl)cyclopropyl)-5-((6-(3,3-dimethyl-1-((1s,3s)-3-methyl-3-(piperidin-1-yl)cyclobutyl)indolin-6-yl)-3-isopropyl-3H-imidazo[4,5-c]pyridin-4-yl)amino)-3,4-difluoro-2-methylbenzamide]
0.09		Cc1c(C(=O)NC(C)C)cc(Nc2nc(-c3cnc4c(c3)N([C@H]3C[C@@](C)(N5CCCCC5)C3)C(=O)C4(C)C)cc3ncn(C(C)C)c23)c(F)c1F [Example 220, 5-((6-(3,3-Dimethyl-1-((1s,3s)-3-methyl-3-(piperidin-1-yl)cyclobutyl)-2-oxo-2,3-dihydro-1H-pyrrolo[3,2-b]pyridin-6-yl)-3-isopropyl-3H-imidazo[4,5-c]pyridin-4-yl)amino)-3,4-difluoro-N-isopropyl-2-methylbenzamide]
0.05		CC(C)n1cnc2cc(-c3cnc4c(c3)N([C@H]3C[C@@](C)(N5CCC6CC6C5)C3)C(=O)C4(C)C)nc(Nc3cc(C(=O)NCC(F)F)c(Cl)c(F)c3F)c21 (stereo partly drawn) [Example 256, 5-((6-(1-((1s,3s)-3-(3-azabicyclo[4.1.0]heptan-3-yl)-3-methylcyclobutyl)-3,3-dimethyl-2-oxo-2,3-dihydro-1H-pyrrolo[3,2-b]pyridin-6-yl)-3-isopropyl-3H-imidazo[4,5-c]pyridin-4-yl)amino)-2-chloro-N-(2,2-difluoroethyl)-3,4-difluorobenzamide]
0.2		Cc1c(C(=O)NC2(C(F)F)CC2)cc(Nc2nc(-c3cnc4c(c3)N([C@H]3C[C@@](C)(N5CCC(F)C6(CC6)C5)C3)C(=O)C4(C)C)cc3ncn(C(C)C)c23)c(F)c1F (stereo partly drawn) [Example 187, N-(1-(Difluoromethyl)cyclopropyl)-3,4-difluoro-5-((6-(1-((1s,3s)-3-(8-fluoro-5-azaspiro[2.5]octan-5-yl)-3-methylcyclobutyl)-3,3-dimethyl-2-oxo-2,3-dihydro-1H-pyrrolo[3,2-b]pyridin-6-yl)-3-isopropyl-3H-imidazo[4,5-c]pyridin-4-yl)amino)-2-methylbenzamide]
0.1		CC(=O)N1CCC2(CC1)C(=O)N([C@H]1C[C@@H](N3CCCCC3)C1)c1cc(-c3cc4ncn(C(C)C)c4c(Nc4ccc(C)c(C(=O)NCCO)c4)n3)ccc12 [Example 132]
0.1		CC[C@H](C)n1cnc2cc(-c3ccc4c(c3)N([C@H]3C[C@@H](N5CCCCC5)C3)C(=O)C4(C)C)nc(Nc3ccc(C)c(C(=O)NC)c3)c21 [Example 128]
0.2		Cc1cc(F)c(Nc2nc(-c3ccc4c(c3)N([C@H]3C[C@@H](N5CCCCC5)C3)C(=O)C4(C)C)cc3ncn(C(C)C)c23)cc1C(=O)NC(C)C [Example 176]
	0.03	Cc1c(C(=O)NCC(F)F)cc(Nc2nc(-c3ccc4c(c3)N([C@H]3C[C@@](C)(N5CCCCC5)C3)C(=O)C4(C)C)cc3ncn(C(C)C)c23)c(F)c1F [Example 268, N-(2,2-difluoroethyl)-5-((6-(3,3-dimethyl-1-((1s,3s)-3-methyl-3-(piperidin-1-yl)cyclobutyl)-2-oxoindolin-6-yl)-3-isopropyl-3H-imidazo[4,5-c]pyridin-4-yl)amino)-3,4-difluoro-2-methylbenzamide]

Compound	IC50 [1] [nM]	IC50 [2] [nM]
Cc1c(C(=O)NC2(C(F)F)CC2)cc(Nc2nc(-c3cnc4c(c3)N(C3CC(C)(N5CCC6C[C@H]5CO6)C3)C(=O)C4(C)C)cc3ncn(C(C)C)c23)c(F)c1F (stereo partly drawn) [Example 191, 5-((6-(1-((1s,3s)-3-(6-oxa-2-azabicyclo[3.2.1]octan-2-yl)-3-methylcyclobutyl)-3,3-dimethyl-2-oxo-2,3-dihydro-1H-pyrrolo[3,2-b]pyridin-6-yl)-3-isopropyl-3H-imidazo[4,5-c]pyridin-4-yl)amino)-N-(1-(difluoromethyl)cyclopropyl)-3,4-difluoro-2-methylbenzamide]	0.09	
CNC(=O)c1cc(Nc2nc(-c3ccc4c(c3)N([C@H]3C[C@@H](N5CCCCC5)C3)C(=O)C43CCN(CC(F)F)CC3)cc3ncn(C(C)C)c23)c(F)cc1C [Example 61]	0.2	
CNC(=O)c1cc(Nc2nc(-c3ccc4c(c3)N([C@H]3C[C@@H](N5CCCCC5)C3)C(=O)C43CCN(C4COC4)CC3)cc3ncn(C4CC4)c23)ccc1C [Example 173]	0.08	
